Series [1] addresses T1, rabbit muscle glycogen phosphorylase a (GPa) (Oryctolagus cuniculus, UniProt P00489).
T1 construct: gene PYGM
T1 sequence (P00489 2-843): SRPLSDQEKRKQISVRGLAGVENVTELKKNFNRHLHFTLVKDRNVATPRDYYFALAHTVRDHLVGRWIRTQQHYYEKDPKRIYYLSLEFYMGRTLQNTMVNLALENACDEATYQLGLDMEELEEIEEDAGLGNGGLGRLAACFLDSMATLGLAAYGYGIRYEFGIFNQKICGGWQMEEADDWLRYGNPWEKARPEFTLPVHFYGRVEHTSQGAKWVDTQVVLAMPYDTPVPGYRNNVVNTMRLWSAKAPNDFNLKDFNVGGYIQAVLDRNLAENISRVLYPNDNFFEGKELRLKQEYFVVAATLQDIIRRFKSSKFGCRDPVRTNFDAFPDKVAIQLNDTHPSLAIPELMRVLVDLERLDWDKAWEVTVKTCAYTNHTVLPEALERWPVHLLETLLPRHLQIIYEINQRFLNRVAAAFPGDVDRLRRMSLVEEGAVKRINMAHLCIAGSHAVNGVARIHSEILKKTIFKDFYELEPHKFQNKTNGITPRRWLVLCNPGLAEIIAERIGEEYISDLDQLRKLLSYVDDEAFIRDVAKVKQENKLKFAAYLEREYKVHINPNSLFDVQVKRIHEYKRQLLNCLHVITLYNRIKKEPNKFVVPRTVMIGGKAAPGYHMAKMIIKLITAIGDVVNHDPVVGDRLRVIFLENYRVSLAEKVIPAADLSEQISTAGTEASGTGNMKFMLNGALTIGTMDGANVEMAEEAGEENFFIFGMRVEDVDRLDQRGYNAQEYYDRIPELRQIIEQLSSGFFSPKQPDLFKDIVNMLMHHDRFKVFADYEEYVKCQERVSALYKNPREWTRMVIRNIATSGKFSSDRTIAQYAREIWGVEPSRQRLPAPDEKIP
Nature of the series: colorimetric phosphate release assay (BIOMOL Green), glycogen synthesis direction, […] °C, no glucose. It counts as biochemical.

Series [2] has as its target T1, rabbit muscle glycogen phosphorylase a (GPa). Put plainly: colorimetric phosphate release assay (BIOMOL Green); percent inhibition at […], […] °C. The format is biochemical.
Substrate in the series “purified protein”: O=P(O)(O)O[C@H]1O[C@H](CO)[C@@H](O)[C@H](O)[C@H]1O
Put plainly: purified protein.

In turn, `CN(C)C(=O)[C@H](O)[C@H](Cc1ccccc1)NC(=O)c1cc2cc(Cl)ccc2[nH]1` [CP-91149, 5-chloro-N-[(1S,2R)-3-(dimethylamino)-2-hydroxy-3-oxo-1-(phenylmethyl)propyl]-1H-indole-2-carboxamide] registered an IC50 in series [1] of 580 ± 90 nM. Turning to `O=c1oc2c(O)c(O)cc3c(=O)oc4c(O)c(O)cc1c4c23` [ellagic acid], the “% inhibition at 100 μM” value in series [2] was found to be 40.6 ± 4.5.

B1: rabbit muscle glycogen phosphorylase a (GPa) (Oryctolagus cuniculus) (protein)
chain: T1 sequence (P00489 2-843)
As to B1, in the series “purified protein”, the Km was 150 ± 30 µM.

One may read the IC50 as the point on the concentration scale where inhibition reaches its midpoint. As usually defined, the Km is the concentration of substrate that gives half-maximal velocity.

The values are drawn from PMC8347172, “Optimization and Validation of an In Vitro Standardized Glycogen Phosphorylase Activity Assay” (Molecules, 2021).
